From patent publication US6017919A, “Compounds and pharmaceutical use thereof” (Japan Tobacco Inc., priority 1996, dated 2000)
Where a name gives a salt, the structure may show the parent alone. Read-outs that look alike come from different tables or passages of the source.

Legend:
[1] = system: Sheep red blood cell-induced delayed type hypersensitivity; assay: Sheep red blood cell (SRBC)-induced delayed type hypersensitivity (DTH) model; format: in vivo, female ddy mice; conditions: Mus musculus, Erythrocyte; po, mice, 1 h before SRBC challenge; paw volume 24 h after induction
Procedure: [III] Sheep red blood cell (SRBC)-induced delayed type hypersensitivity (DTH) model (in vivo)
Female ddy mice (6-8 weeks old) were used. On day 1, SRBC 10^7 cells were intradermally injected into the left foot pad of the mice (40 μl/foot) to immunize the mice. Five days later, the test compounds dissolved in olive oil were orally administered at 10 ml/kg. One hour later, SRBC 10^8 cells were intradermally injected into the right foot pad to induce the response. Twenty-four hours after the induction, the volume of the both paws was measured, and edema ratio was calculated by […].
(§1) In both [II] and [III], the test compounds were dissolved in DMSO and used upon dilution with olive oil (final concentration of DMSO 1%).

[2] = target: T1, cannabinoid central type (CB1) receptor (Rattus norvegicus, UniProt P20272); assay: Binding assay, cannabinoid central type receptor (CB1), rat cerebellar membrane fraction, [3H]Win55212-2
T1 construct: rat cerebellar membrane fraction and spleen cells were respectively used; from tissue; host or cells: rat cerebellar membrane fraction (male SD rats, 7-9 weeks old)
Procedure: (§2) [I] Binding Assay (in vitro)
(§3) As the sample rich in cannabinoid central type (CB1) and peripheral type (CB2) receptors, rat cerebellar membrane fraction and spleen cells were respectively used (male SD rats, 7-9 weeks old). A sample (cerebellar membrane fraction: 50 μg/ml or spleen cells: 1×10^7 cells/ml), labeled ligand ([^3 H]Win55212-2, 2 nM) and unlabeled Win55212-2 or a test compound were plated in round bottom 24 well plates, and incubated at 30° C. for 90 min in the case of cerebellar membrane fraction, and at 4° C. for 360 min in the case of spleen cells. As the assay buffer, 50 mM Tris solution containing 0.2% BSA was used for cerebellar membrane fraction, and 50 mM Tris-HBSS containing 0.2% BSA was used for spleen cells. After incubation, the samples were filtrated through a filter (Packard, Unifilter 24 GF/B) and dried. A scintillation solution (Packard, Microsint-20) was added, and the radioactivity of the samples was determined (Packard, Top count A9912V). The non-specific binding was determined by adding an excess Win55212-2 (1 μM), and specific binding was calculated by subtracting non-specific binding from the total binding obtained by adding the labeled ligand alone. The test compounds were dissolved in DMSO to the final concentration of DMSO of 0.1%. IC50 was determined from the proportion of the specifically-bound test compounds, and the Ki value of the test compounds was calculated from IC50 and Kd value of [^3 H]Win55212-2.

[3] = system: Carageenan-induced paw edema; assay: Carageenan-induced paw edema model; format: in vivo, female ddy mice; conditions: Mus musculus; po, mice, 1 h before carageenan; paw volume 3 h later
Procedure: [II] Carageenan-induced paw edema model (in vivo)
Female ddy mice (6-8 weeks old) were used. […] One hour after the administration, 50 μL of 1% carageenan dissolved in physiological saline was intradermally injected into the right foot pad. Three hours later, the volume of the right paw was measured and compared with that measured before the carageenan injection.
as §1

[4] = target: T2, cannabinoid peripheral type (CB2) receptor (Rattus norvegicus, UniProt Q9QZN9); assay: Binding assay, cannabinoid peripheral type receptor (CB2), rat spleen cells, [3H]Win55212-2; conditions: for C/S: ratio of Ki central receptor (C) to Ki peripheral receptor (S)
T2 construct: rat cerebellar membrane fraction and spleen cells were respectively used; from tissue; host or cells: rat spleen cells (male SD rats, 7-9 weeks old)
T2 sequence (Q9QZN9 1-360): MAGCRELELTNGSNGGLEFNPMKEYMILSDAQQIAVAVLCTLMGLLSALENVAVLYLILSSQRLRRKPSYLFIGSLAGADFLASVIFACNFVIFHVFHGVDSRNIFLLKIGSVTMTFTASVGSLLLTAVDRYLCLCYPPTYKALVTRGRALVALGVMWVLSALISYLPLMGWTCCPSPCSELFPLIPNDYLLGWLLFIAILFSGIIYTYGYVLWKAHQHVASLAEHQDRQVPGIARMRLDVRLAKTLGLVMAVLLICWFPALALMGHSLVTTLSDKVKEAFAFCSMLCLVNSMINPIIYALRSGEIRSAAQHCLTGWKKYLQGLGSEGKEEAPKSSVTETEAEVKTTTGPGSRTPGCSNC
Procedure: as §2, §3

[5] = rat spleen cells, [3H]Win55212-2 2 nM, 4° C. 360 min, read-out: Ki value, Peripheral receptor (S)
[6] = rat cerebellar membrane fraction, [3H]Win55212-2 2 nM, 30° C. 90 min, read-out: Ki value, Central receptor (C)

T1 sequence (P20272 whole entry): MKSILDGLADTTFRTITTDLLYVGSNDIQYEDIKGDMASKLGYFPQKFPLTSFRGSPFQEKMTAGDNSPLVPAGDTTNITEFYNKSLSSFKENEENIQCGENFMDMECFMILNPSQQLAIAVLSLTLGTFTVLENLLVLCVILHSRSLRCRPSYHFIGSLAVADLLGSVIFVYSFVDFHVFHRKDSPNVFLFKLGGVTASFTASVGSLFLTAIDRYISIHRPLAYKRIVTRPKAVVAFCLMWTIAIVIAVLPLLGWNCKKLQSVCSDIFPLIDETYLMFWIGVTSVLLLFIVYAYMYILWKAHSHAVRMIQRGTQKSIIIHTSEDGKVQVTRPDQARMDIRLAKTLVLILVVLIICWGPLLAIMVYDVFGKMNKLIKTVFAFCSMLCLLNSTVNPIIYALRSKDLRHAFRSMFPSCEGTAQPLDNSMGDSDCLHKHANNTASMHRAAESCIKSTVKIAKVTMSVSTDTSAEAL

| SMILES | ED50 [1] | Ki [2] | ED50 [3] | C/S [4] | Ki [4, 5] | Ki [2, 6] | Ki ([2]; read-out: Ki value, Central receptor (C), rat cerebellar membrane fraction, [3H]Win55212-2 2 nM, 30° C. 90 min) | Ki [4] |
| --- | --- | --- | --- | --- | --- | --- | --- | --- |
| CCCCCOc1cc(/C=C/C(=O)NCCc2ccc(O)cc2)ccc1OC [Example 1-1] | 1.52 mg/kg | 230 nM | 1 mg/kg | 48 | – | – | – | – |
| CCCCCOc1cc(/C=C/C(=O)NCCc2ccc(O)cc2)ccc1OCC [Example 1-2] | 0.48 mg/kg | 400 nM | > 1 mg/kg | 222 | 1.8 nM | – | – | – |
| CCCCOc1cc(/C=C/C(=O)NCCc2ccc(O)cc2)ccc1OC [Example 1-4] | 0.71 mg/kg | 960 nM | 0.55 mg/kg | 125 | 7.7 nM | – | – | – |
| CCCCCOc1cc(/C=C/C(=O)N[C@@H](Cc2ccc(O)cc2)C(=O)OC)ccc1OC [Example 1-22] | 0.77 mg/kg | 480 nM | 0.14 mg/kg | 343 | 1.4 nM | – | – | – |
| CCCCCSc1cc(/C=C/C(=O)NCCc2ccc(O)cc2)ccc1OC [Example 1-34, N-[2-(4-hydroxyphenyl)ethyl]-3-(4-methoxy-3-pentylthiophenyl)acrylamide] | 1.95 mg/kg | 930 nM | 0.59 mg/kg | 845 | – | – | – | – |
| CCCCCNc1cc(/C=C/C(=O)NCCc2ccc(N)cc2)ccc1OC [Example 1-35, N-[2-(4-aminophenyl)ethy]-3-(4methoxy-3-pentylaminophenyl)-acrylamide] | 0.063 mg/kg | 160 nM | 0.12 mg/kg | 16 | 10 nM | – | – | – |
| CCCCCOc1cc(C(=O)NCCc2ccc(O)cc2)ccc1OC [Example 2-1, N-[2-(4-hydroxyphenyl)ethyl]-(4-methoxy-3-pentyloxy)benzamide] | 0.14 mg/kg | – | 0.04 mg/kg | 560 | – | 1400 nM | – | – |
| CCCCCOc1cc(C(=O)NCCc2ccc(O)cc2)ccc1OCC [Example 2-2] | 0.9 mg/kg | 1100 nM | 0.51 mg/kg | 1000 | 1.1 nM | – | – | – |
| CCCCCOc1ccc(C(=O)NCCc2ccc(O)cc2)cc1OCCCCC [Example 2-3] | 0.053 mg/kg | > 3300 nM | 0.17 mg/kg | > 8250 | – | – | – | – |
| CCCCCNc1cc(C(=O)NCCc2ccc(O)cc2)ccc1OC [Example 2-6] | 0.72 mg/kg | – | 0.3 mg/kg | 455 | 1.1 nM | – | 500 nM | – |
| CCCCOc1cc(C(=O)NCCc2ccc(O)cc2)ccc1OC [Example 2-7] | 2.35 mg/kg | > 2500 nM | 2.28 mg/kg | 263 | 9.5 nM | – | – | – |
| CCCCCCOc1cc(C(=O)NCCc2ccc(O)cc2)ccc1OC [Example 2-8] | 1.45 mg/kg | 1000 nM | 0.73 mg/kg | 270 | 3.7 nM | – | – | – |
| CCCCCOc1cc(C(=O)NCCc2cccc(O)c2)ccc1OC [Example 2-13] | 5.6 mg/kg | 5600 nM | 3.2 mg/kg | 849 | 6.6 nM | – | – | – |
| CCCCCOc1cc(C(=O)NCCc2ccncc2)ccc1OC [Example 2-16] | 1.95 mg/kg | – | 1.1 mg/kg | > 59 | – | > 4300 nM | – | – |
| CCCCCOc1cc(C(=O)NC2CCc3cc(O)c(O)cc3C2)ccc1OC (stereo not drawn) [Example 2-26] | 3.75 mg/kg | > 2500 nM | > 10 mg/kg | > 139 | – | – | – | – |
| CCCCCOc1ccc(C(=O)NCCc2ccc(N)cc2)cc1SCCCCC [Example 2-52, N-[2-(4-aminophenyl)ethyl]4-pentyloxy-3-pentylthiobenzamide] | 0.58 mg/kg | > 4300 nM | 1.85 mg/kg | > 2300 | – | – | – | – |
| CCCCCOc1c(OC)ccc(C2=NC(C)(C)CO2)c1CO [Example 6-4] | 10 mg/kg | 650 nM | 0.25 mg/kg | 59 | 11 nM | – | – | – |
| CCCCCOc1c(OC)ccc2c1C(=O)N(CCc1ccc(O)cc1)C2=O [Example 7-4, 2-[2-(4-hydroxyphenyl)ethyl]-5-methoxy-4-pentyloxyisoindole-1,3-dione] | 1.6 mg/kg | – | 1.6 mg/kg | 137 | – | 1000 nM | – | – |
| CCCCCOc1c(OC)ccc2c1CN(CCc1ccc(O)cc1)C2=O [Example 7-5, 2-[2-(4-hydroxyphenyl)ethyl]-5-methoxy-4-pentyloxy-2,3-dihydroisoindol-1-one] | 0.038 mg/kg | > 2500 nM | 0.014 mg/kg | > 227 | – | – | – | – |
| CCCCCOc1c(OC)ccc2c(=O)n(CCc3ccc(O)cc3)ccc12 [Example 7-19-1] | 0.033 mg/kg | – | 0.092 mg/kg | 54 | – | 200 nM | – | – |
| CCCCCOc1c(OC)ccc2c(=O)n(CCc3ccncc3)ccc12 [Example 7-20] | 0.084 mg/kg | – | 0.195 mg/kg | 48 | – | 400 nM | – | – |
| CCCCCOc1c(OC)ccc2c1CCN(CCc1ccc(O)cc1)C2=O [Example 7-24, 2-[2-(4-hydroxyphenyl)ethyl]-6-methoxy-5-pentyloxy-3,4dihydro-2H-isoquinolin-1-one] | 0.027 mg/kg | > 2500 nM | 0.028 mg/kg | > 1389 | – | – | – | – |
| CCCCCOc1ccc2c(c1OCCCCC)CN(CCc1ccc([N+](=O)[O-])cc1)C2=O [Example 7-30, 4,5-dipentyloxy-2-[2-(4-nitrophenyl)ethyl]-2,3-dihydroisoindol-1-one] | 0.021 mg/kg | 2600 nM | < 0.01 mg/kg | 1440 | 1.8 nM | – | – | – |
| CCCCCNc1c(OC)ccc2c1CN(CCc1ccc(O)cc1)C2=O [Example 7-31, 2-[2-(4-hydroxyphenyl)ethyl]-5-methoxy-4-pentylamino-2,3-dihydroindol-1-one] | 0.08 mg/kg | 11 nM | 0.012 mg/kg | 125 | – | – | – | – |
| CCCCCOc1ccc2c(c1OCCCCC)CN(CCc1ccc(N)cc1)C2=O [Example 7-34, 2-[2-(4-aminophenyl)ethyl]-4,5-bispentyloxy-2,3-dihydroisoindol-1-one] | 0.012 mg/kg | 330 nM | 0.29 mg/kg | 3000 | – | – | – | – |
| CCCCCOc1c(OC)ccc2c1CN(CCc1ccc(N)cc1)C2=O [Example 7-37, 2-[2-(4-aminophenyl)ethyl]-5-methoxy-4-pentyloxy-2,3-dihydroisoindol-1-one] | 0.058 mg/kg | – | 0.49 mg/kg | 93 | – | 1300 nM | – | – |
| CCCCCOc1c(OC)ccc2c1CCN(CCc1ccc(N)cc1)C2=O [Example 7-38, hydrochloride] | 0.011 mg/kg | 220 nM | 0.11 mg/kg | 22 | – | – | – | 9.9 nM |
| CCCCCOc1c(OC)ccc2c(=O)n(CCc3ccc(N)cc3)c(=O)[nH]c12 [Example 7-40, 3-[2-(4-aminophenyl)ethyl]-7-methoxy-8-pentyloxy-1H-quinazoline-2,4-dione] | – | 109 nM | 0.016 mg/kg | > 30 | < 3.7 nM | – | – | – |
| CCCCCOc1cc(OC)ccc1/C=C/C(=O)N1CCOCC1 [Example 8-2, (E)-[3-(4-methoxy-2-pentyloxyphenyl)-1-oxo-2-propenyl]-4-morpholine] | > 10 mg/kg | 560 nM | 0.5 mg/kg | 67 | 8.4 nM | – | – | – |
